Laboratory results taken from patent US20240090503A1, “FUNGICIDAL OXADIAZOLES AND THEIR MIXTURES” (FMC CORPORATION, priority 2020, published 2024).
Like-named read-outs stand apart in the source and are kept apart here.

Assays:
[1] = tested on: Phakopsora pachyrhizi (the causal agent of Asian soybean rust); assay: Test A: preventive spray on soybean seedlings, Asian soybean rust, visual disease rating; type: in vivo; conditions: Phakopsora pachyrhizi, 216 h, soybean seedlings, 100 = 100% disease control, 0 = no control; for pest or weed control at 10 µg/mL: test suspension 10 ppm, read-out: Test A disease control rating; for pest or weed control at 10 ppm: 10 ppm test suspension
How it was run: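 Compound in acetone/water (50/50) with 250 ppm PEG400 sprayed to run-off on soybean seedlings; inoculated next day with Phakopsora pachyrhizi spores. Held 24 h at 22° C in saturated atmosphere, then 8 days in a 22° C growth chamber before visual rating as % disease control relative to controls.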

[2] = tested on: Zymoseptoria tritici (the causal agent of wheat leaf blotch); assay: Test B: preventive spray on wheat seedlings, wheat leaf blotch, visual disease rating; type: in vivo; conditions: Zymoseptoria tritici, 456 h, wheat seedlings; for pest or weed control at 250 µg/mL: test suspension 250 ppm; for pest or weed control at 250 ppm: 250 ppm test suspension, 100 = 100% disease control
How it was run: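 This is a preventive test: spray application preceded Zymoseptoria tritici spore inoculation by one day. Test suspensions were in acetone/water with 250 ppm PEG400 surfactant, at the listed ppm rate. After 48 h saturated humidity at 24° C and 17 days at 20° C, visual ratings scored control from 0 to 100%.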

[3] = tested on: Phakopsora pachyrhizi (the causal agent of Asian soybean rust); assay: Test E: compounds alone and mixtures sprayed on soybean seedlings, Asian soybean rust, observed and Colby-expected disease control; type: in vivo; conditions: Phakopsora pachyrhizi
Text: The general protocol for preparing test compositions for TEST E was as follows: Compound 316, Compound 376, Compound 225, Compound 229, Compound 257, Compound 394, Compound 506, Compound 507, Compound 508, Compound 509, Compound 511, Compound 512, methyl N-[[5-[1-[2,6-difluoro-4-(1-methylethyl)phenyl]-1H-pyrazol-3-yl]-2-methylphenyl]methyl]carbamate (b54.11a), methyl N-[[5-[l-(4-cyclopropyl-2,6-difluorophenyl)-1H-pyrazol-3-yl]-2-methylphenyl]methyl]carbamate (b54.11d), ethyl 1-[[4-[[(1Z)-2-ethoxy-3,3,3-trifluoro-1-propen-1-yl]oxy]phenyl]methyl]-1H-pyrazole-4-carboxylate (b54.12a), ethyl 1-[[4-[[2-(trifluoromethyl)-1,3-dioxolan-2-yl]methoxy]phenyl]methyl]-1H-pyrazole-4-carboxylate (b54.13a), azoxystrobin, benzovindiflupyr, bixafen, chlorothalonil, cyproconazole, epoxiconazole, fenpropidin, fenpropimorph, fluindapyr, flutriafol, fluxapyroxad, inpyrfluxam, metominostrobin, picoxystrobin, prothioconazole, pydiflumetofen, pyraclostrobin, tebuconazole and trifloxystrobin were obtained as unformulated, technical-grade materials. Copper hydroxide and mancozeb was obtained as a formulated product marketed under the trademarks KOCIDE 3000 and MANZATE, respectively. Unformulated materials were first dissolved in acetone and then suspended at the desired concentration (in ppm) in acetone and purified water (50/50 mixture by volume) containing 250 ppm of the surfactant Trem® 014 (polyhydric alcohol esters). Formulated materials were dispersed in sufficient water to give the desired concentration, and neither organic solvent nor surfactant was added to the suspension. The resulting test mixtures were then used in TEST E. The tests were run on four individual plants and the results reported as the mean average of the four plants.
The presence of a synergistic effect between two active ingredients can be established with the aid of the Colby equation (see Colby, S. R. “Calculating Synergistic and Antagonistic Responses of Herbicide Combinations”, Weeds, (1967), 15, 20-22):
Using the method of Colby, the presence of a synergistic interaction between two active ingredients is established by first calculating the predicted activity, p, of the mixture based on activities of the two components applied alone. If p is lower than the experimentally established effect, synergism has occurred. In the equation above, A is the fungicidal activity in percentage control of one component applied alone at rate x. The B term is the fungicidal activity in percentage control of the second component applied at rate y. The equation estimates p, the expected fungicidal activity of the mixture of A at rate x with B at rate y if their effects are strictly additive and no interaction has occurred.
The test mixture was sprayed to the point of run-off on soybean seedlings. The following day the seedlings were inoculated with a spore suspension of Phakopsora pachyrhizi (the causal agent of Asian soybean rust) and incubated in a saturated atmosphere at 22° C. for 24 h and then moved to a growth chamber at 22° C. for 8 days, after which time visual disease ratings were made.
Results for Test E are given below in Tables A-1 through K-2. Each table corresponds to a set of evaluations performed together at the same time. In each table, a rating of 100 indicates 100% disease control and a rating of 0 indicates no disease control (relative to the controls). Columns labeled “Obsd” indicate the average of results observed from test run on four individual plants. Columns labeled “Exp” indicate the expected value for each treatment mixture using the Colby equation, as described above.

[4] = tested on: Puccinia recondita f. sp. tritici (the causal agent of wheat leaf rust); assay: Test C: preventive spray on wheat seedlings, wheat leaf rust, visual disease rating; type: in vivo; conditions: Puccinia recondita, 168 h, wheat seedlings; for pest or weed control at 10 µg/mL: test suspension 10 ppm, read-out: Test C disease control rating; for pest or weed control at 10 ppm: 10 ppm test suspension
How it was run: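 Wheat seedlings sprayed to run-off with compound in acetone/water (50/50) with 250 ppm PEG400, then inoculated with spores the following day. After 24 h saturated humidity at 20° C. and 6 days in growth chamber at 20° C., disease rated visually as % control relative to untreated controls.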

[5] = 100 = 100% disease control, 0 = no control

SMILES | pest or weed control at 10 µg/mL [1] [%] | pest or weed control at 250 µg/mL [2] [%] | pest or weed control at 10 µg/mL [4] [%] | melting point [°C] | pest or weed control at 10 ppm [1] [%] | pest or weed control at 10 ppm [4, 5] [%] | other results
N#CCCNC(=O)c1coc(Cc2ccc(-c3noc(C(F)(F)F)n3)cc2)n1 [Compound 229, N-(2-cyanoethyl)-2-[[4-[5-(trifluoromethyl)-1,2,4-oxadiazol-3-yl]phenyl]methyl]-4-oxazolecarboxamide] | 100 | 94 | 100 |  |  |  | pest or weed control at 0.964 ppm ([3]; applied alone, 0.964 ppm, read-out: Test E Obsd): 59%; pest or weed control at 1.915 ppm ([3]; applied alone, 1.915 ppm, read-out: Test E Obsd): 77%
COCCNC(=O)c1coc(Cc2ccc(-c3noc(C(F)(F)F)n3)cc2)n1 [Compound 257, N-(2-methoxyethyl)-2-[[4-[5-(trifluoromethyl)-1,2,4-oxadiazol-3-yl]phenyl]methyl]-4-oxazolecarboxamide] | 100 | 99 | 100 |  |  |  | pest or weed control at 0.914 ppm ([3]; applied alone, 0.914 ppm, read-out: Test E Obsd): 27%
O=C(NCCn1cccn1)c1coc(Cc2ccc(-c3noc(C(F)(F)F)n3)cc2)n1 [Compound 264, N-[2-(1H-pyrazol-1-yl)ethyl]-2-[[4-[5-(trifluoromethyl)-1,2,4-oxadiazol-3-yl]phenyl]methyl]-4-oxazolecarboxamide] | 100 | 99 | 99 | 125 to 126 |  |  | 
O=C(NCCC(F)(F)F)c1coc(Cc2ccc(-c3noc(C(F)(F)F)n3)cc2)n1 [Compound 330, 2-[[4-[5-(trifluoromethyl)-1,2,4-oxadiazol-3-yl]phenyl]methyl]-N-(3,3,3-trifluoropropyl)-4-oxazolecarboxamide] | 100 | 96 | 100 | 104 to 105 |  |  | 
CCOC(=O)c1cnn(COc2ccc(-c3noc(C(F)(F)F)n3)cc2)c1 [Compound 376, ethyl 1-[[4-[5-(trifluoromethyl)-1,2,4-oxadiazol-3-yl]phenoxy]methyl]-1H-pyrazole-4-carboxylate] | 100 | 49 | 68 |  |  |  | pest or weed control at 0.753 ppm ([3]; Compound 376 alone, 0.753 ppm, read-out: Test E Obsd): 53%; pest or weed control at 1.228 ppm ([3]; Compound 376 alone, 1.228 ppm, read-out: Test E Obsd): 78%; pest or weed control at 0.753 ppm ([3]; Table A-2, Compound 376 0.753 ppm alone, read-out: Test E Obsd (disease control rating)): 70%; pest or weed control at 1.228 ppm ([3]; Table A-2, Compound 376 1.228 ppm alone, read-out: Test E Obsd (disease control rating)): 66%; pest or weed control at 0.753 ppm ([3]; Table B-2, Compound 376 0.753 ppm alone, read-out: Test E Obsd (disease control rating)): 15%; pest or weed control at 1.228 ppm ([3]; Table B-2, Compound 376 1.228 ppm alone, read-out: Test E Obsd (disease control rating)): 21%; pest or weed control at 0.753 ppm ([3]; Table C-2, Compound 376 0.753 ppm alone, read-out: Test E Obsd (disease control rating)): 54%; pest or weed control at 1.228 ppm ([3]; Table C-2, Compound 376 1.228 ppm alone, read-out: Test E Obsd (disease control rating)): 71%; pest or weed control at 0.753 ppm ([3]; Table D-2, Compound 376 0.753 ppm alone, read-out: Test E Obsd (disease control rating)): 67%; pest or weed control at 1.228 ppm ([3]; Table D-2, Compound 376 1.228 ppm alone, read-out: Test E Obsd (disease control rating)): 68%; pest or weed control at 0.753 ppm ([3]; Table E-2, Compound 376 0.753 ppm alone, read-out: Test E Obsd (disease control rating)): 81%; pest or weed control at 1.228 ppm ([3]; Table E-2, Compound 376 1.228 ppm alone, read-out: Test E Obsd (disease control rating)): 67%; pest or weed control at 0.753 ppm ([3]; Table F-2, Compound 376 0.753 ppm alone, read-out: Test E Obsd (disease control rating)): 68%; pest or weed control at 1.228 ppm ([3]; Table F-2, Compound 376 1.228 ppm alone, read-out: Test E Obsd (disease control rating)): 77%; pest or weed control at 0.753 ppm ([3]; Table G-2, Compound 376 0.753 ppm alone, read-out: Test E Obsd (disease control rating)): 52%; pest or weed control at 1.228 ppm ([3]; Table G-2, Compound 376 1.228 ppm alone, read-out: Test E Obsd (disease control rating)): 37%; pest or weed control at 0.753 ppm ([3]; Table H-2, Compound 376 0.753 ppm alone, read-out: Test E Obsd (disease control rating)): 62%; pest or weed control at 1.228 ppm ([3]; Table H-2, Compound 376 1.228 ppm alone, read-out: Test E Obsd (disease control rating)): 81%
O=C(NCC(F)F)c1csc(Cc2ccc(-c3noc(C(F)(F)F)n3)cc2)n1 [Compound 505, N-(2,2-difluoroethyl)-2-[[4-[5-(trifluoromethyl)-1,2,4-oxadiazol-3-yl]phenyl]methyl]-4-thiazolecarboxamide] |  |  |  | 83 to 92 | 100 | 100 | pest or weed control at 250 ppm [2]: 100%
O=C(NCC(F)(F)F)c1noc(Cc2ccc(-c3noc(C(F)(F)F)n3)cc2)n1 [Compound 506, N-(2,2,2-trifluoroethyl)-5-[[4-[5-(trifluoromethyl)-1,2,4-oxadiazol-3-yl]phenyl]methyl]-1,2,4-oxadiazole-3-carboxamide] |  |  |  | 116 to 120 |  |  | pest or weed control at 250 ppm ([1]; 250 ppm test suspension): 100%; pest or weed control at 250 ppm [2]: 49%; pest or weed control at 250 ppm ([4]; 250 ppm test suspension, 100 = 100% disease control, 0 = no control): 100%
N#CCn1ccc(Cc2ccc(-c3noc(C(F)(F)F)n3)cc2)n1 [Compound 507, 3-[4-[(1-cyanomethyl-1H-pyrazol-3-yl)methyl]phenyl]-5-(trifluoromethyl)-1,2,4-oxadiazole] |  |  |  | 111 to 114 | 100 | 98 | pest or weed control at 1.823 ppm ([3]; applied alone, 1.823 ppm, read-out: Test E Obsd): 74%
N#CCc1cc(Cc2ccc(-c3noc(C(F)(F)F)n3)cc2)on1 [Compound 510, 5-[[4-[5-(trifluoromethyl)-1,2,4-oxadiazol-3-yl]phenyl]methyl]-3-isoxazoleacetonitrile] |  |  |  | 101 to 104 | 100 | 84 | 
